Measured values as given in publication PMC11583123, “Linker Chemistry and Connectivity Fine-Tune the Immune Response and Kinetic Solubility of Conjugated NOD2/TLR7 Agonists” (Bioconjugate Chemistry, 2024).
Entries after “also recorded” stand apart in the source; their conditions may differ.

Legend:
human TLR7 = molecular target: T1, human TLR7 (Homo sapiens, UniProt Q9NYK1); assay: HEK-Blue TLR7 NF-κB SEAP reporter assay; format: cell-based; details: HEK-Blue TLR7 cells
T1 construct: host or cells: HEK-Blue TLR7 (HEK293-derived)
T1 sequence (Q9NYK1 27-1049): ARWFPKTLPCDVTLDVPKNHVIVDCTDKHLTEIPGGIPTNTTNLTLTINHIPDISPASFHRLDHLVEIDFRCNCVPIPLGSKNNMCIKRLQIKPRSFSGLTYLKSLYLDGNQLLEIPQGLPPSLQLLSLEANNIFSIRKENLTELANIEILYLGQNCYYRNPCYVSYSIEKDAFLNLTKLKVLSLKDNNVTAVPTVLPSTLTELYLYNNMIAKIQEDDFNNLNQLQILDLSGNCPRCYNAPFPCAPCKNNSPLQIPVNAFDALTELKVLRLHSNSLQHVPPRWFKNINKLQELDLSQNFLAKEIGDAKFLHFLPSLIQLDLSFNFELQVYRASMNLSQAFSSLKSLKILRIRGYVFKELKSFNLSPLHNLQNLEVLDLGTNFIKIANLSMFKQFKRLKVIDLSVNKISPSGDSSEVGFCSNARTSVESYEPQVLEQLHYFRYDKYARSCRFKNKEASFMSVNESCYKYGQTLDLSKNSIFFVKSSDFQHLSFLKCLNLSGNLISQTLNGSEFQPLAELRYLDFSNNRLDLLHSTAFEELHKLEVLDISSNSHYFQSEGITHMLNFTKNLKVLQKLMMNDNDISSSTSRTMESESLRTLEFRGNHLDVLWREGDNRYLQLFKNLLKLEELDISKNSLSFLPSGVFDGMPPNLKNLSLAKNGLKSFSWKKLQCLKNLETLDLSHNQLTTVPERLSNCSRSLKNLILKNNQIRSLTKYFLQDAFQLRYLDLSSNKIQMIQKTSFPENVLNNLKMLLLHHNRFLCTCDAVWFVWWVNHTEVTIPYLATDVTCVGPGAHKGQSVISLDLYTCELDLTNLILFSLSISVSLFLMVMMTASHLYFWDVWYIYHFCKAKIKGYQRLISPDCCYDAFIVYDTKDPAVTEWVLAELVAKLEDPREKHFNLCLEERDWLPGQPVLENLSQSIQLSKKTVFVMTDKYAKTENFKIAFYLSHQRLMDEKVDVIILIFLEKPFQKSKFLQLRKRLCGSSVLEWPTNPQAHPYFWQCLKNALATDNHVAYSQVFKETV
From the text: The building blocks and synthesized conjugates were initially assessed for their receptor-specific activities toward NOD2, TLR7 and TLR8 using the commercially available HEK-Blue NOD2, TLR7 and TLR8 reporter cell lines. These cell lines were derived from HEK293 cells by cotransfection of human NOD2/TLR7/TLR8 and an NF-κB-inducible secreted embryonic alkaline phosphatase (SEAP). Activation of NOD2/TLR7/TLR8, and subsequently of NF-κB, leads to the expression and secretion of SEAP, the levels of which can be quantified colorimetrically. […]
3.1. Hek-Blue NOD2, TLR7 and TLR8 cells.
HEK-Blue NOD2, TLR7, and TLR8 cells (Invivogen, San Diego, CA, USA) were cultured according to the manufacturer instructions in Dulbecco’s modified Eagle’s medium (Sigma-Aldrich, St. Louis, MO, USA) supplemented with 10% heat-inactivated fetal bovine serum (Gibco), 2 mM L-glutamine (Sigma-Aldrich), 100 U/mL penicillin (Sigma-Aldrich), 100 µg/mL streptomycin (Sigma-Aldrich), and 100 µg/mL Normocin (Invivogen) for two passages. All subsequent passages of NOD2 and TLR8 cells were cultured in medium additionally supplemented with 100 µg/mL Zeocin and 30 µg/mL Blasticidin (Invivogen) and of TLR7 cells with 100 µg/mL Zeocin and 10 µg/mL Blasticidin. […]
The tested compounds were dissolved in DMSO and further diluted in culture medium to the desired final concentrations, such that the final DMSO concentration never exceeded 0.1%. […]
3.4 NOD2/TLR7/TLR8 NF-kB reporter assay
HEK-Blue NOD2 cells (25,000 cells/well), TLR7 and TLR8 cells (40,000 cells/well) were seeded in 96-well plates in 100 µL HEK-Blue detection medium (Invivogen, San Diego, CA, USA) and treated with […]
corresponding vehicle (0.1% DMSO). After 18 h of incubation (37 °C, 5% CO2), secreted embryonic

[1] = test system: human primary peripheral blood mononuclear cells (PBMCs); assay: Cytokine release from peripheral blood mononuclear cells (LEGENDplex); format: cell-based; details: 1 μM, 18 h, Figure S2
Experimental: Third, the immunostimulatory potential of synthesized conjugates was assessed in human primary peripheral blood mononuclear cells (PBMCs) (Figure 3, Supporting Table), which represent a diverse array of immune cell subpopulations, providing a more physiologically relevant system for studying concurrent NOD2/TLR7 or NOD2/TLR7/TLR8 activation. […]
software (version 9; GraphPad Software, CA, USA). The experiments were run in duplicates, and repeated as at least three independent biological replicates.
3.5 Cytokine Release from Peripheral Blood Mononuclear Cells […]
growth medium and treated with the compounds (1 μM), or the corresponding vehicle (0.1% DMSO).
Cell-free supernatants were collected after 18 h of incubation (37 °C, 5% CO2) and stored at −80 °C until tested. Cytokine concentrations were determined with the LEGENDplex™ HU Essential Immune Response Panel (Biolegend) on an Attune NxT flow cytometer (Thermo Fisher Scientific, Waltham, MA). […] The data were analyzed using the FlowJo (Tree Star, Inc., Ashland, OR) and Prism (GraphPad, San Diego, CA) software.
Statistical significance was determined with one-way ANOVA with subsequent Dunnett’s multiple […]
The data were analyzed using Prism software (version 9; GraphPad Software, CA, USA). Statistical significance was determined according to the specific procedures outlined in each experiment. […]

[2] = 18 h, eight concentrations (1 nM to 10 μM), mean ± SEM

With `CCOCc1nc2c(NC(=O)CCCCCNC(=O)CC[C@@H](NC(=O)[C@@H](NC(=O)CNC(=O)/C=C/c3ccc(O)c(OC)c3)C(C)C)C(=O)OCC)nc3ccccc3c2n1CC(C)(C)O` [compound 32] the EC50 (human TLR7; [2]) was greater than 10 µM, the “TLR7 agonistic activity (in words)” value (human TLR7; up to 10 μM) was “devoid of TLR7 agonistic activity” and the “Cytokine release versus combinations of 5 + 6 or 5 + 7 (in words)” value [1] was “devoid of any potential synergistic effect; also recorded: not significantly increased”.
With `CCOCc1nc2c(N)nc3ccccc3c2n1CC(C)(C)NC(=O)CCCCCNC(=O)CC[C@@H](NC(=O)[C@@H](NC(=O)CNC(=O)/C=C/c1ccc(O)c(OC)c1)C(C)C)C(=O)OCC` [compound 33] the EC50 (human TLR7) was 5.3 µM, the EC50 (human TLR7; [2]) was 5.29 ± 1.5 µM and the “Cytokine release versus combinations of 5 + 6 or 5 + 7 (in words)” value [1] was “devoid of any potential synergistic effect; also recorded: not significantly increased”.
